From patent publication US20210186973A1, “COMBINATION OF RIBOCICLIB AND DABRAFENIB FOR TREATING OR PREVENTING CANCER” (NOVARTIS AG, priority 2015, published 2021)
“Also recorded” adds a separate entry of the source.

Key:
Format in all cases: cell-based
[1] = system: 6 B-Raf mutant colorectal cancer cell lines; test: Cell proliferation over the panel of 6 cell lines; settings: single agent
Procedure: (§1) The compounds were dissolved in 100% DMSO (Sigma, Catalog number D2650) at concentrations of 20 mM and stored at −20° C. until use. Compounds were arrayed in drug master plates (Greiner, Catalog number 788876) and serially diluted 3-fold (7 steps) at 2000× concentration.
(§2) Colorectal cancer cell lines used for this study were obtained, cultured and processed from commercial vendors ATCC, CellBank Australia, and HSRRB (Table 1). All cell line media were supplemented with 10% FBS (HyClone, Catalog number SH30071.03). […]
(§3) Cell lines were cultured in 37° C. and 5% CO2 incubator and expanded in T-75 flasks. In all cases cells were thawed from frozen stocks, expanded through ≥1 passage using 1:3 dilutions, counted and assessed for viability using a ViCell counter (Beckman-Coulter) prior to plating. […] All cell lines were determined to be free of mycoplasma contamination as determined by a PCR detection methodology performed at Idexx Radil (Columbia, Mo., USA) and correctly identified by detection of a panel of SNPs.
(§4) Images were analyzed after adapting previously described methods (Horn, Sandmann et al. 2011) and using the Bioconductor package EBImage in R (Pau, Fuchs et al. 2010). Objects in both channels, DAPI (for Hoechst/DNA) and FITC (for Caspase 3/7), were segmented separately by adaptive thresholding and counted. […]

[2] = system: RKO; test: Cell proliferation (cell count by microscopy) in RKO; settings: Homo sapiens; single agent; RKO (BRAF, PIK3CA); 72 h; 50% of cell counts relative to DMSO
Procedure: as §1, §2, §3, §4

[3] = system: LS411N; test: Cell proliferation (cell count by microscopy) in LS411N; settings: Homo sapiens, LS-411N; single agent; LS411N (BRAF); 72 h; 50% of cell counts relative to DMSO
Procedure: as §1, §2, §3, §4

[4] = system: HT-29; test: Cell proliferation (cell count by microscopy) in HT-29; settings: Homo sapiens; single agent; HT-29 (BRAF, PIK3CA); 72 h; 50% of cell counts relative to DMSO
Procedure: as §1, §2, §3, §4

[5] = system: LIM2551; test: Cell proliferation (cell count by microscopy) in LIM2551; settings: single agent; LIM2551 (BRAF, PIK3CA); 72 h; 50% of cell counts relative to DMSO
Procedure: as §1, §2, §3, §4

[6] = system: COLO-205; test: Cell proliferation (cell count by microscopy) in COLO-205; settings: Homo sapiens; single agent; COLO-205 (BRAF); 72 h; 50% of cell counts relative to DMSO
Procedure: as §1, §2, §3, §4

[7] = system: OUMS-23; test: Cell proliferation (cell count by microscopy) in OUMS-23; settings: single agent; OUMS-23 (BRAF); 72 h; 50% of cell counts relative to DMSO
Procedure: as §1, §2, §3, §4

Row | SMILES | IC50s (in words) ([1]; in the PIK3CA mutant cells) | IC50 [2] [nM] | IC50 [3] [nM] | IC50 [4] [nM] | IC50 [5] [nM] | IC50 [6] [nM] | IC50 [7] [nM] | IC50s (in words) ([1]; all but one cell line (ODMS-23))
1 | Cc1nc(NC(=O)N2CCC[C@H]2C(N)=O)sc1-c1ccnc(C(C)(C)C(F)(F)F)c1 [BYL719, (S)-Pyrrolidine-1,2-dicarboxylic acid 2-amide 1-({4-methyl-5-[2-(2,2,2-trifluoro-1,1-dimethyl-ethyl)-pyridin-4-yl]-thiazol-2-yl}-amide)] | micromolar | – | – | – | – | – | – | –
2 | CC(C)(C)c1nc(-c2cccc(NS(=O)(=O)c3c(F)cccc3F)c2F)c(-c2ccnc(N)n2)s1 [Dabrafenib, N-{3-[5-(2-Amino-4-pyrimidinyl)-2-(1,1-dimethylethyl)-1,3-thiazol-4-yl]-2-fluorophenyl}-2,6-difluorobenzenesulfonamide] | – | 240 | 36 | 16 | 18 | 7 | > 1000 | nanomolar to low micromolar; also recorded: nanomolar to sub-micromolar
